Source: publication PMC3755991, “Crystal Structure and Substrate Specificity of D-Galactose-6-Phosphate Isomerase Complexed with Substrates” (PLoS ONE, 2013)
Each block holds one compound with its values, some of them ahead of it.

What was measured:
[1] = molecular target: T1, LacAB (D-galactose-6-phosphate isomerase) (Lacticaseibacillus rhamnosus, UniProt A0A7S7FMU0+A0ABF7SXF6); assay: conversion to D-psicose in soaked crystal; format: binding; conditions: 40 mM soak for 2 hr; D-psicose seen in the electron density
T1 construct: gene LRHM_0645; full-length LacA (142 residues) and LacB (172 residues) co-expressed in E. coli BL21(DE3), pQE-80L, N-terminal His6

[2] = molecular target: T1, LacAB (D-galactose-6-phosphate isomerase); assay: X-ray crystal structure, soaking; format: binding; conditions: converted in the crystal, active site
[3] = molecular target: D-galactose-6-phosphate isomerase LacAB from Lactobacillus rhamnosus (heterodimer of LacA and LacB) (Lactobacillus rhamnosus); assay: SEC-MALS; purified LacAB on Superdex 200 10/300 GL, 50 mM Tris-HCl pH 7.5, 200 mM NaCl, 1 mL/min

Compound: OC[C@H]1OC(O)[C@H](O)[C@H](O)[C@@H]1O (stereo partly drawn) [D-allose]
- conversion to D-psicose in soaked crystal [1]: D-allose and D-ribose revealed that the substrates are converted to D-psicose and D-ribulose, respectively

- X-ray crystal structure, soaking ([2]; crystal soaked in 40 mM D-allose for 2 hr): 4LFM for its complex with D-psicose
Compound: OCC1(O)OC[C@@H](O)[C@@H](O)[C@H]1O (stereo partly drawn) [D-psicose]

- X-ray crystal structure, soaking ([2]; crystal soaked in 45 mM D-ribose for 2 hr): 4LFN for its complex with D-ribulose
Compound: O=C(CO)[C@H](O)[C@H](O)CO [D-ribulose]

- stoichiometry N [3]: 4
Compound: D-galactose-6-phosphate isomerase LacAB from Lactobacillus rhamnosus (heterodimer of LacA and LacB) (from UniProt A0ABF7SXF6 1-172) (complex)
